US20040171566A1, “Antisense modulation of p38 mitogen activated protein kinase expression” (priority 1999, published 2004)
In the oligonucleotide strings, read from the 5' end, every base follows the letter of its sugar. An asterisk marks phosphorothioate; unmarked linkages are phosphodiester. Other units and linkages are bracketed, terminal groups are in braces. A string of capitals states the bases alone. e = 2'-O-(2-methoxyethyl) (MOE); [5mC] = 5-methylcytosine; d = 2'-deoxy (DNA)

Tests used:
human p38β mRNA = assay: Inhibition of human p38β mRNA expression in HUVEC cells, Northern blot; type: cell-based
Description: (§1) The human Jurkat T-cell line (American Type Culture Collection, Manassas, Va.) was maintained in RPMI 1640 growth media supplemented with 10% fetal bovine serum (FBS; Hyclone, Logan, Utah). HUVEC cells (Clonetics, San Diego, Calif.) were cultivated in endothelial basal media supplemented with 10% FBS (Hyclone, Logan, Utah).
HUVEC cells were allowed to reach 75% confluency prior to use. The cells were washed twice with warm (37° C.) OPTI-MEM™ (Life Technologies). The cells were incubated in the presence of the appropriate culture medium, without the growth factors added, and the oligonucleotide formulated in LIPOFECTIN7 (Life Technologies), a 1:1 (w/w) liposome formulation of the cationic lipid N-[1-(2,3-dioleyloxy)propyl]-n,n,n-trimethylammonium chloride (DOTMA), and dioleoyl phosphotidylethanolamine (DOPE) in membrane filtered water. HUVEC cells were treated with 100 nM oligonucleotide in 10 μg/ml LIPOFECTIN7. Treatment was for four hours.
(§2) Total mRNA was isolated using the RNEASY7 Mini Kit (Qiagen, Valencia, Calif.; similar kits from other manufacturers may also be used), separated on a 1% agarose gel, transferred to HYBOND™-N+ membrane (Amersham Pharmacia Biotech, Piscataway, N.J.), a positively charged nylon membrane, and probed. p38 MAPK probes were made using the Prime-A-Gene7 kit (Promega Corporation, Madison, Wis.), a random primer labeling kit, using mouse p38α or p38β cDNA as a template. A glyceraldehyde 3-phosphate dehydrogenase (G3PDH) probe was purchased from Clontech (Palo Alto, Calif.), Catalog Number 9805-1. The fragments were purified from low-melting temperature agarose, as described in Maniatis, T., et al., Molecular Cloning: A Laboratory Manual, 1989. The G3PDH probe was labeled with REDIVUE™ ^32P-dCTP (Amersham Pharmacia Biotech, Piscataway, N.J.) and Strip-EZ labelling kit (Ambion, Austin, Tex.). mRNA was quantitated by a PhosphoImager (Molecular Dynamics, Sunnyvale, Calif.).
Every oligonucleotide tested gave at least 50% inhibition.
Oligonucleotides 17893 (SEQ ID NO. 27), 17899 (SEQ ID NO:33), 17904 (SEQ ID NO. 38), and 17907 (SEQ ID NO. 41) were chosen for dose response studies. HUVEC cells were cultured and treated as described in Example 2 except that the oligonucleotide concentration was varied as shown in Table 6. The Lipofectin7/Oligo ratio was maintained at 3 μg Lipofectin7/100 nM oligo, per ml. mRNA was measured by Northern blot as described in Example 2.

human p38α mRNA = assay: Inhibition of human p38α mRNA expression in Jurkat cells, Northern blot; type: cell-based; details: Jurkat cells electroporated with 10 μM oligonucleotide; Northern blot
Description: as §1
Jurkat cells were grown to approximately 75% confluency and resuspended in culture media at a density of 1×10^7 cells/ml. A total of 3.6×10^6 cells were employed for each treatment by combining 360 μl of cell suspension with oligonucleotide at the indicated concentrations to reach a final volume of 400 μl. Cells were then transferred to an electroporation cuvette and electroporated using an Electrocell Manipulator 600 instrument (Biotechnologies and Experimental Research, Inc.) employing 150 V, 1000 μF, at 13 Ω. Electroporated cells were then transferred to conical tubes containing 5 ml of culture media, mixed by inversion, and plated onto 10 cm culture dishes.
as §2
Jurkat cells were grown and treated as described above except the concentration of oligonucleotide was varied as indicated in Table 3. […] Maximum inhibition was approximately 70% with 16500 (SEQ ID NO 17).

[1] = 100 nM oligonucleotide in 10 μg/ml LIPOFECTIN, four hours, Northern blot

| Sequence | % mRNA EXPRESSION (human p38β mRNA; [1]) [%] | % mRNA Inhibition (human p38β mRNA; [1]) [%] | other results |
| --- | --- | --- | --- |
| ATGATGCGCTTCAGCTGGTC (chemistry not fully specified) [ISIS 17901] | 15 | 85 | – |
| ATGTTCTTCCAGTCAACAGC (antisense eA*eT*eG*eT*eT*e[5mC]*dT*dT*dC*dC*dA*dG*dT*dC*eA*eA*e[5mC]*eA*eG*e[5mC]) [ISIS 16498] | – | – | % mRNA EXPRESSION (human p38α mRNA): 88%; % mRNA Inhibition (human p38α mRNA): 12% |
| CAGAGAGCCTCCTGGGAGGG (antisense e[5mC]*eA*eG*eA*eG*eA*dG*dC*dC*dT*dC*dC*dT*dG*eG*eG*eA*eG*eG*eG) [ISIS 16489] | – | – | % mRNA EXPRESSION (human p38α mRNA): 149% |
| CAGCACCTCACTGCTCAATC (chemistry not fully specified) [ISIS 17904] | 9 | 91 | % mRNA EXPRESSION (human p38β mRNA; dose 10 nM): 31%; % mRNA Inhibition (human p38β mRNA; dose 10 nM): 69%; % mRNA EXPRESSION (human p38β mRNA; dose 25 nM): 21%; % mRNA Inhibition (human p38β mRNA; dose 25 nM): 79%; % mRNA EXPRESSION (human p38β mRNA; dose 50 nM): 17%; % mRNA Inhibition (human p38β mRNA; dose 50 nM): 83%; % mRNA EXPRESSION (human p38β mRNA; dose 100 nM): 19%; % mRNA Inhibition (human p38β mRNA; dose 100 nM): 81% |
| CAGCCGCGGGACCAGCGGCG (antisense e[5mC]*eA*eG*e[5mC]*e[5mC]*eG*dC*dG*dG*dG*dA*dC*dC*dA*eG*e[5mC]*eG*eG*e[5mC]*eG) [ISIS 16492] | – | – | % mRNA EXPRESSION (human p38α mRNA): 125% |
| CCGAACAGACGGAGCCGTAT (chemistry not fully specified) [ISIS 17894] | 13 | 87 | – |
| CCTACACATGGCAAGCACAT (chemistry not fully specified) [ISIS 17907] | 8 | 92 | % mRNA EXPRESSION (human p38β mRNA; dose 10 nM): 37%; % mRNA Inhibition (human p38β mRNA; dose 10 nM): 63%; % mRNA EXPRESSION (human p38β mRNA; dose 25 nM): 22%; % mRNA Inhibition (human p38β mRNA; dose 25 nM): 78%; % mRNA EXPRESSION (human p38β mRNA; dose 50 nM): 18%; % mRNA Inhibition (human p38β mRNA; dose 50 nM): 72%; % mRNA EXPRESSION (human p38β mRNA; dose 100 nM): 18%; % mRNA Inhibition (human p38β mRNA; dose 100 nM): 72% |
| CGACATGTCCGGAGCAGAAT (chemistry not fully specified) [ISIS 17891] | 22 | 78 | – |
| CTTGCCAGATATGGCTGCTG (chemistry not fully specified) [ISIS 17910] | 26 | 74 | – |
| GCCAGTGCCTCAGGTGCACT [ISIS 17902] | 49 | 51 | – |
| GCGTGAAGACGTCCAGAAGC (chemistry not fully specified) [ISIS 17896] | 24 | 76 | – |
| GTGCTTCAGGTGCTTGAGCA (chemistry not fully specified) [ISIS 17895] | 25 | 75 | – |
| TCCAGGCTGAGCAGCTCTAA (chemistry not fully specified) [ISIS 17908] | 17 | 83 | – |
| TCTGTGACCATAGGAGTGTG (antisense; chemistry not fully specified) [ISIS 17905] | 14 | 86 | – |
| TTCAGCTCCTGCCGGTAGAA (chemistry not fully specified) [ISIS 17892] | 10 | 90 | – |
